Like-named read-outs stand apart in the source and are kept apart here.
Assay: Single dose clinical study: plasma Compound A pharmacokinetics
Format: in vivo, human
Method: This was a single center, single dose, randomized, double blind, placebo controlled study in healthy subjects. It consisted of 4 parts: Parts A, B, C, and D. Each of the four study parts had 2 phases: Prerandomization Phase and Randomization Phase. The Prerandomization Phase lasted up to 30 days and consisted of a Screening Period and a Baseline Period, during which each subject's study eligibility was determined and baseline assessments were performed.
In Part A, there were 8 sequential cohorts of healthy adult subjects (18-50 years of age). Subjects were randomly assigned to Compound A or placebo in a ratio of 6:2, respectively. Subjects in the Compound A cohorts were treated with single ascending doses of 10, 25, 50, 100, 200, 400, 800, or 1200 mg.
In Part B, there were 4 cohorts of healthy adult subjects (18-50 years of age). There were 8 subjects in Cohort 1, with 6 subjects randomly assigned to receive single doses of Compound A (400 mg) and 2 subjects randomly assigned to receive placebo. There were 7 subjects in Cohort 2 and Cohort 3, each with 6 subjects randomly assigned to receive single doses of Compound A (100 and 200 mg, respectively) and 1 subject randomly assigned to receive placebo. The dose of 100 mg selected in Cohort 2 was based on preliminary analysis of Cohort 1 data; this dose was predicted from PK/PD modeling to achieve a sustained CSF cGMP increase from baseline of approximately 200% when administered to steady state, and thereby provided a potentially therapeutic dose for further evaluation in future studies. There were 7 subjects in Cohort 4, with 6 subjects randomly assigned to receive a single dose of Compound A (50 mg [n=3] or 75 mg [n=3]) and 1 subject randomly assigned to receive placebo. The doses for Cohorts 3 and 4 were selected based on PK/PD modeling of the data in Cohorts 1 and 2.
Subjects in Cohort 2 who had received Compound A 100 mg or placebo under fasted conditions (1st Treatment Period) also participated in an evaluation of food effect on the PK of Compound A (2nd Treatment Period). After a washout period of at least 13 days (or 5 half-lives of Compound A, whichever was longer), subjects were admitted to the clinic for baseline assessments (2nd Baseline Period) and then received a single dose of the same treatment (Compound A 100 mg or placebo) after consuming a high fat and high calorie meal over 30 minutes. Blood PK samples were collected at prespecified time points. Safety evaluations were also assessed. CSF was not collected for PD evaluation during the 2nd Treatment Period. A Follow Up Visit occurred on Day 10 of Treatment Period 2.
In Part C, there was 1 cohort of 8 healthy elderly subjects (65 to 85 years of age) randomly assigned to receive a single dose of Compound A 100 mg or placebo in a ratio of 6:2, respectively.
In Part D, 3 cohorts of healthy adult Japanese subjects were randomized in parallel. There were 7 subjects in each cohort and subjects were randomly assigned to receive single doses of Compound A (25, 100, or 400 mg) or placebo in a ratio of 6:1, respectively.
Blood samples for determination of plasma Compound A concentrations were collected from predose to 216 hours postdose. On Day 1, blood PK samples were collected at predose and postdose 0.5 (30 minutes), 1, 1.5, 2, 3, 4, 5, 6, 8, 12, and 18 hours. Thereafter, samples were collected on Day 2 (24 and 36 hours postdose), Day 3 (48 hours postdose), Day 4 (72 hours postdose), Day 5 (96 hours postdose), Day 6 (120 hours postdose), Day 7 (144 hours postdose), and Day 10 (216 hours postdose).
Blood samples for determination of plasma Compound A concentrations were collected from predose to 216 hours postdose. For all cohorts, blood PK samples were collected on Day 1 at predose and postdose at 0.5 (30 minutes), 1, 1.5, 2, 3, 4, 5, 6, 8, 10, 12, and 18 hours. […]

[1] = 100 mg after high-fat and high-calorie meal
[2] = 400 mg, with weight as a covariate
[3] = Elderly:Younger Adults, single oral 100 mg
[4] = Japanese:non-Japanese, 25 mg, with weight as covariate
[5] = Japanese:non-Japanese, 25 mg, without weight as covariate
[6] = Japanese:non-Japanese, 100 mg, with weight as covariate
[7] = Japanese:non-Japanese, 100 mg, without weight as covariate
[8] = Japanese:non-Japanese, 400 mg, with weight as covariate
[9] = Japanese:non-Japanese, 400 mg, without weight as covariate

SMILES: COc1ncc(C)c(-c2ccc3c(c2)[nH]c(=O)c2cnn([C@H]4CCOC4)c23)c1C [Compound A, (S)-7-(2-methoxy-3,5-dimethylpyridin-4-yl)-1-(tetrahydrofuran-3-yl)-1H-pyrazolo[4,3-c]quin olin-4(5H)-one]
- geometric LS mean Cmax higher in Japanese than non-Japanese (25 mg, with weight as a covariate): 35.6%
- geometric LS mean AUC(0-inf) higher in elderly than in younger healthy adult subjects (100 mg): approximately 41.5%
- geometric LS mean Cmax higher in elderly than in younger healthy adult subjects (100 mg): approximately 45.5%
- increase in the geometric LS mean Cmax, fed vs fasted (100 mg after high fat and high calorie meal): 44.4%
- increase in the geometric LS mean AUC(0-inf), fed vs fasted [1]: 19.2%
- increase in the geometric LS mean Cmax, fed vs fasted [1]: 44.400
- geometric LS mean Cmax higher in Japanese than non-Japanese (100 mg, with weight as a covariate): 30.0%
- geometric LS mean AUC(0-inf) higher in Japanese than non-Japanese [2]: 27.9%
- geometric LS mean Cmax higher in Japanese than non-Japanese [2]: 40.4%
- geometric LS mean Cmax higher in Japanese than non-Japanese across the 3 doses (25, 100, 400 mg): 35.2%
- AUC(0-inf) Geometric LS Mean Ratio (90% CI) [3]: 1.415 (1.168, 1.715)
- Cmax Geometric LS Mean Ratio (90% CI) [3]: 1.455 (1.198, 1.766)
- AUC(0-inf) Geometric LS Mean Ratio (90% CI) (Fed:Fasted, 100 mg, Part B): 1.192 (1.003, 1.418)
- AUC(0-t) Geometric LS Mean Ratio (90% CI) (Fed:Fasted, 100 mg, Part B): 1.186 (0.992, 1.418)
- Cmax Geometric LS Mean Ratio (90% CI) (Fed:Fasted, 100 mg, Part B): 1.444 (1.210, 1.723)
- AUC(O-inf) Geometric LS Mean Ratio (90% CI) [4]: 1.035 (0.819, 1.308)
- Cmax Geometric LS Mean Ratio (90% CI) [4]: 1.356 (1.082, 1.699)
- AUC(O-inf) Geometric LS Mean Ratio (90% CI) [5]: 1.057 (0.845, 1.323)
- Cmax Geometric LS Mean Ratio (90% CI) [5]: 1.394 (1.122, 1.732)
- AUC(O-inf) Geometric LS Mean Ratio (90% CI) [6]: 0.935 (0.767, 1.140)
- Cmax Geometric LS Mean Ratio (90% CI) [6]: 1.300 (1.074, 1.573)
- AUC(O-inf) Geometric LS Mean Ratio (90% CI) [7]: 0.944 (0.778, 1.147)
- Cmax Geometric LS Mean Ratio (90% CI) [7]: 1.317 (1.091, 1.589)
- AUC(O-inf) Geometric LS Mean Ratio (90% CI) [8]: 1.279 (1.035, 1.580)
- Cmax Geometric LS Mean Ratio (90% CI) [8]: 1.404 (1.145, 1.721)
- AUC(O-inf) Geometric LS Mean Ratio (90% CI) [9]: 1.300 (1.059, 1.595)
- Cmax Geometric LS Mean Ratio (90% CI) [9]: 1.433 (1.176, 1.747)
- AUC (human, plasma, oral, 25 mg, Japanese, 25 mg, with weight as covariate, read-out: AUC(O-inf) Geometric LS Means Test): 4500 ng·h/mL
- Cmax (human, plasma, oral, 25 mg, Japanese, 25 mg, with weight as covariate, read-out: Cmax Geometric LS Means Test): 207 ng/mL
- AUC (human, plasma, oral, 25 mg, Japanese, 25 mg, without weight as covariate, read-out: AUC(O-inf) Geometric LS Means Test): 4580 ng·h/mL
- Cmax (human, plasma, oral, 25 mg, Japanese, 25 mg, without weight as covariate, read-out: Cmax Geometric LS Means Test): 212 ng/mL
- AUC (human, plasma, oral, 25 mg, non-Japanese, 25 mg, with weight as covariate, read-out: AUC(O-inf) Geometric LS Means Reference): 4350 ng·h/mL
- Cmax (human, plasma, oral, 25 mg, non-Japanese, 25 mg, with weight as covariate, read-out: Cmax Geometric LS Means Reference): 152 ng/mL
- AUC (human, plasma, oral, 25 mg, non-Japanese, 25 mg, without weight as covariate, read-out: AUC(O-inf) Geometric LS Means Reference): 4340 ng·h/mL
- Cmax (human, plasma, oral, 25 mg, non-Japanese, 25 mg, without weight as covariate, read-out: Cmax Geometric LS Means Reference): 152 ng/mL
- AUC(0-inf) (human, plasma, oral, 100 mg, Fasted, 100 mg, Part B, read-out: AUC(0-inf) Geometric LS Means Reference): 14500 ng·h/mL
- AUC(0-t) (human, plasma, oral, 100 mg, Fasted, 100 mg, Part B, read-out: AUC(0-t) Geometric LS Means Reference): 14400 ng·h/mL
- Cmax (human, plasma, oral, 100 mg, Fasted, 100 mg, Part B, read-out: Cmax Geometric LS Means Reference): 371 ng/mL
- AUC(0-inf) (human, plasma, oral, 100 mg, Fed, 100 mg, Part B, read-out: AUC(0-inf) Geometric LS Means Test): 17300 ng·h/mL
- AUC(0-t) (human, plasma, oral, 100 mg, Fed, 100 mg, Part B, read-out: AUC(0-t) Geometric LS Means Test): 17100 ng·h/mL
- Cmax (human, plasma, oral, 100 mg, Fed, 100 mg, Part B, read-out: Cmax Geometric LS Means Test): 536 ng/mL
- AUC (human, plasma, oral, 100 mg, Japanese, 100 mg, with weight as covariate, read-out: AUC(O-inf) Geometric LS Means Test): 14200 ng·h/mL
- Cmax (human, plasma, oral, 100 mg, Japanese, 100 mg, with weight as covariate, read-out: Cmax Geometric LS Means Test): 491 ng/mL
- AUC (human, plasma, oral, 100 mg, Japanese, 100 mg, without weight as covariate, read-out: AUC(O-inf) Geometric LS Means Test): 14200 ng·h/mL
- Cmax (human, plasma, oral, 100 mg, Japanese, 100 mg, without weight as covariate, read-out: Cmax Geometric LS Means Test): 492 ng/mL
- AUC (human, plasma, oral, 100 mg, non-Japanese, 100 mg, with weight as covariate, read-out: AUC(O-inf) Geometric LS Means Reference): 15200 ng·h/mL
- Cmax (human, plasma, oral, 100 mg, non-Japanese, 100 mg, with weight as covariate, read-out: Cmax Geometric LS Means Reference): 378 ng/mL
- AUC (human, plasma, oral, 100 mg, non-Japanese, 100 mg, without weight as covariate, read-out: AUC(O-inf) Geometric LS Means Reference): 15000 ng·h/mL
- Cmax (human, plasma, oral, 100 mg, non-Japanese, 100 mg, without weight as covariate, read-out: Cmax Geometric LS Means Reference): 373 ng/mL
- half-life (human, plasma, oral, 100 mg, read-out: mean terminal half-life longer in elderly than in younger healthy adult subjects (converted)): ~10 h
- AUC (human, plasma, oral, 400 mg, Japanese, 400 mg, with weight as covariate, read-out: AUC(O-inf) Geometric LS Means Test): 46000 ng·h/mL
- Cmax (human, plasma, oral, 400 mg, Japanese, 400 mg, with weight as covariate, read-out: Cmax Geometric LS Means Test): 1170 ng/mL
- AUC (human, plasma, oral, 400 mg, Japanese, 400 mg, without weight as covariate, read-out: AUC(O-inf) Geometric LS Means Test): 46500 ng·h/mL
- Cmax (human, plasma, oral, 400 mg, Japanese, 400 mg, without weight as covariate, read-out: Cmax Geometric LS Means Test): 1180 ng/mL
- AUC (human, plasma, oral, 400 mg, non-Japanese, 400 mg, with weight as covariate, read-out: AUC(O-inf) Geometric LS Means Reference): 36000 ng·h/mL

From US20220378706A1, “PHARMACEUTICAL COMPOSITION COMPRISING PDE9 INHIBITOR” (Eisai R&D Management Co., Ltd., priority 2017, published 2022)
